Results from patent publication US20060217315A1, “Method of controlled ovarian hyperstimulation and pharmaceutical kit for use in such method” (priority 2001, published 2006).

Legend:
[1] = test system: folliculogenesis; details: 50 mg/day tablets from cycle day 2 until hCG injection, with recombinant FSH; cited from earlier work
[2] = test system: premature LH-surge; assay: Open-label uncontrolled clinical trial of premature LH-surge prevention in COH with IVF and embryo transfer; assay type: in vivo, human; details: for prevention of premature LH-rises (above levels of 10 IU/L): day 6 of recombinant FSH treatment until day of hCG treatment
Procedure: An open-label, uncontrolled clinical trial is performed to investigate the efficacy, safety, and tolerability of premature LH-surge prevention in 30 female subjects undergoing COH and subsequent IVF and embryo transfer (ET), using a daily oral dosage of 40 mg mifepristone from day 6 of recombinant FSH treatment up to and including the day of hCG treatment and thrice daily intravaginal progesterone supplementation with 200 mg starting immediately after the hCG treatment for a period of up to 12 weeks. Although this treatment is suitable for all types of IVF patients (e.g. within the age range 18 to 45 years, with or without displaying polycystic ovarian syndrome and with or without a regular cycle), the following selection criteria are set forth in the investigation: healthy female partners of infertile couples; age at the time of screening between 20 and 39 years; a body mass index (BMI) between 19 and 29 kg/m^2; a regular menstrual cycle, and willing to give a written informed consent. Prior to the first administration of recombinant FSH a blood sample is taken for hormone analysis (estradiol and LH) and a standard urinary hCG assay is performed to exclude pregnancy. Recombinant FSH treatment is started at day 2 or 3 of menses onwards by a daily subcutaneous injection until the day of hCG administration. During the first 5 days of recombinant FSH treatment the dose is fixed at 150 IU. Starting at day 6, blood samples for hormone analysis are taken every two days prior to drug administration and ultrasonographic monitoring of follicle growth is performed to adjust, if necessary, the daily injectable dose of recombinant FSH. A subcutaneous injection with urinary hCG (5.000 IU) and an intramuscular injection of 50 mg progesterone are administered simultaneously, when at least three follicles exceed a diameter of 17 mm as measured by ultrasound scan and subsequently oocyte retrieval is performed 30-38 hours later. Using the procedure as set forth in example 1, with the proviso that, instead of using a daily dose of 40 mg mifepristone, mifepristone is used at a daily dose of 20 mg, a similar clinical outcome is obtained at a lower anti-P exposure level in the female subjects. […] Using the procedure as set forth in example 1, with the proviso that, instead of using a daily dose of 40 mg mifepristone, mifepristone is used at a daily dose of 10 mg, a similar clinical outcome is obtained at a lower anti-P exposure level in the female subjects.

[3] = test system: midcycle gonadotropin surge; details: cited from earlier work
[4] = test system: endometrium; assay: Controlled clinical study of endometrial receptivity in oocyte donors undergoing COH (glandular dating, pinopodes); assay type: in vivo, human; details: endometrial biopsy day 7 after hCG injection
Procedure: An open-label, randomized and controlled clinical study is performed in oocyte donors undergoing COH and in whom premature LH-surges are prevented by either standard GnRH agonist treatment (5 oocyte donors) or mifepristone treatment (5 oocyte donors) with the objective to compare endometrial receptivity. In women treated with 40 mg orally administered mifepristone, the procedure as set forth in example 1 is used, with the proviso that instead of administering progesterone for 12 weeks, daily intravaginal progesterone supplementation with 400 mg is started immediately after the hCG treatment and continued until the day of endometrial biopsy (day 7 after hCG injection in donors). To oocyte donors in the reference group, undergoing COH and receiving GnRH agonist, treatment with GnRH agonist is started in the midluteal phase of the preceding menstrual cycle and given concomitantly with recombinant FSH from day 2 or 3 of the COH cycle up to and including the day of hCG treatment Vaginal progesterone supplementation is started in the GnRH-treated oocyte donors directly after oocyte retrieval (36-38 hours after hCG injection) and continued until the day of endometrial biopsy (day 7 after hCG injection). Endometrial samples are taken from all oocyte donors. […]

[5] = test system: uterine contractility; details: vaginal administration starting on the day of oocyte retrieval, compared with preovulatory values; cited from earlier work
[6] = test system: endogenous LH surge; assay: Clinical investigation: intramuscular progesterone instead of hCG to allow an endogenous LH surge in COH; assay type: in vivo, human
Procedure: An open-label, uncontrolled clinical investigation is performed in 5 healthy female volunteers undergoing COH and subsequent IVF and ET, using the procedure as set forth in example 1, with the proviso that in stead of administering hCG a single intramuscular injection of 50 mg progesterone is administered to allow an endogenous LH surge to occur, inducing resumption of meiosis and luteinisation.

CC#C[C@]1(O)CC[C@H]2[C@@H]3CCC4=CC(=O)CCC4=C3[C@@H](c3ccc(N(C)C)cc3)C[C@@]21C [mifepristone]
effect on follicular development [1]: arrests follicular development by delaying the growth of the dominant follicle
occurrence of LH-surges prior to hCG injection [1]: may prevent the occurrence of LH-surges
tolerability and adverse effects ([2]; 10 mg daily oral): well tolerated and shows no adverse effects
prevention of premature LH-rises (above levels of 10 IU/L) ([2]; 10 mg daily oral): efficacious in preventing premature LH-rises
tolerability and adverse effects ([2]; 20 mg daily oral): well tolerated and shows no adverse effects
prevention of premature LH-rises (above levels of 10 IU/L) ([2]; 20 mg daily oral): efficacious in preventing premature LH-rises
tolerability and adverse effects ([2]; 40 mg daily oral): well tolerated and shows no adverse effects
prevention of premature LH-rises (above levels of 10 IU/L) ([2]; 40 mg daily oral): efficacious in preventing premature LH-rises
timing of the midcycle gonadotropin surge and collapse of the dominant follicle ([3]; 1 mg/day for 5 or 15 days, starting when dominant follicle reached 14-16 mm): consistently delayed
emergence of periovulatory progesterone rise ([3]; 1 mg/day for 5 or 15 days): delayed the emergence of periovulatory progesterone rise
endometrial glandular dating ([4]; hematoxylin and eosin staining): typically in-phase glandular dating is observed
presence of pinopodes ([4]; scanning electron microscopy): pinopodes are readily visible

CC(=O)[C@H]1CC[C@H]2[C@@H]3CCC4=CC(=O)CC[C@]4(C)[C@H]3CC[C@]12C [progesterone]
uterine contraction frequency on the day of embryo transfer [5]: induced a decrease in uterine contraction frequency
LH and FSH surges when added to RU486 ([3]; 5-10 mg/day, im, for 2 days, added to a 5-day course of RU486): readily induced LH and FSH surges and completely reversed the effects of RU486 at midcycle
oocyte quality at harvest ([6]; harvested at 36-3836 hours after starting progesterone treatment): retrieval of good quality oocytes
occurrence of endogenous LH-surges ([6]; single intramuscular injection of 50 mg, after 40 mg mifepristone COH procedure): efficacious in allowing endogenous LH-surges to occur
